For test [1], the target named is T1, human Chk1 kinase (Homo sapiens, UniProt O14757).
T1 sequence (O14757 1-476): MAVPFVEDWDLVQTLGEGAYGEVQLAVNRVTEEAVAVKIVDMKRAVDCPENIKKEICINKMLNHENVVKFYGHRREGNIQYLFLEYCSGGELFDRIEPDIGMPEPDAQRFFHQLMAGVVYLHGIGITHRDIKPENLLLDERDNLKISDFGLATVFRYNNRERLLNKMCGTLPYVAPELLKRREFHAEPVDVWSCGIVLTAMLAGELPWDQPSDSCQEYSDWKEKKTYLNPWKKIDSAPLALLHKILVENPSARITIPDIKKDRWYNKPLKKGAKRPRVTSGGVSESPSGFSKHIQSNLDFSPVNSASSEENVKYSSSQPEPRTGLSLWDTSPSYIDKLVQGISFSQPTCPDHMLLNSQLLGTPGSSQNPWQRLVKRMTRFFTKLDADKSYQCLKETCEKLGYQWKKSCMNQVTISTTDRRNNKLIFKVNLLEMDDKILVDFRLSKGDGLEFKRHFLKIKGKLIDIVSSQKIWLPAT
In words: biochemical.

Test [2] has as its target human Chk2 kinase (Homo sapiens, UniProt O96017). In words: biochemical.
Test [3] deals with GBM LN18 cells. Nature of the test: In vitro cell viability assay (Cell Titre Glo, 72 hours). Format: cell-based. The note with it: Homo sapiens, LN-18, read-out: LN18 pIC50 (converted). The method, then:
GBM LN18 cells were incubated with increasing concentrations of selected compounds of the invention for 72 hours prior to the measurement of ATP in metabolically viable cells with the Cell Titre® Glo Luminescent reagent. A 10-point concentration response curve up to a maximum concentration of 10 μM was tested.
The percent (%) effect i.e., inhibition at each concentration of compound was calculated based on, and relative to the amount of inhibition produced in the vehicle control and inhibited control wells contained within each plate.

Each structure is given as a SMILES string. Where only a bound is given, the exact number is not on record here.

Sequence of human Chk2 kinase (O96017 whole entry): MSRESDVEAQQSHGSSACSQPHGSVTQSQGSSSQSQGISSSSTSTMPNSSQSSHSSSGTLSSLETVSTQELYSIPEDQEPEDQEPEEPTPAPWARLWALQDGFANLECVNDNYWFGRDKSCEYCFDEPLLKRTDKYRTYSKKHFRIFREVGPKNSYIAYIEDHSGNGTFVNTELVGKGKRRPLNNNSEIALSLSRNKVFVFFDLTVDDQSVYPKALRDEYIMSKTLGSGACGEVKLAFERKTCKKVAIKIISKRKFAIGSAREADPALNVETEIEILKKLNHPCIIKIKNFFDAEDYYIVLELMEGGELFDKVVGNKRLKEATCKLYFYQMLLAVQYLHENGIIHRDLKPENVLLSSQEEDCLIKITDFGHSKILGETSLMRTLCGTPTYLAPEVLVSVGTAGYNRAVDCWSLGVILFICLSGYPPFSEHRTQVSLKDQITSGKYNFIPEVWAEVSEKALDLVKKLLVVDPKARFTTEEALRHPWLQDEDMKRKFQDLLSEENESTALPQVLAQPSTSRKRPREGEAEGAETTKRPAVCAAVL

`CN(C)[C@@H]1CCN(c2ccc(-n3cnc(Nc4cnc(C#N)cn4)c3)c(C(F)(F)F)c2)C1` [Example 71, (R)-5-((1-(4-(3-(Dimethylamino)pyrrolidin-1-yl)-2-(trifluoromethyl)phenyl)-1H-imidazol-4-yl)amino)pyrazine-2-carbonitrile]: the figures for the IC50 in test [1], in test [2] and in test [3] were 0.1 to 0.316 µM, over 100 µM and under 1 µM, respectively.

As for `CC(C)N[C@@H]1CCN(c2ccc(-n3cnc(Nc4cnc(C#N)cn4)c3)cc2)C1` [Example 96, (R)-5-((1-(4-(3-(Isopropylamino)pyrrolidin-1-yl)phenyl)-1H-imidazol-4-yl)amino)pyrazine-2-carbonitrile], the values for the IC50 in test [1], in test [2] and in test [3] were 0.01 to 0.0316 µM, 10 to 100 µM and under 1 µM, respectively.

On to `CCN(C)[C@@H]1CCN(c2ccc(-n3cnc(Nc4cnc(C#N)cn4)c3)nc2)C1` [Example 90, (R)-5-((1-(5-(3-(Ethyl(methyl)amino)pyrrolidin-1-yl)pyridin-2-yl)-1H-imidazol-4-yl)amino)pyrazine-2-carbonitrile], for which the figures for the IC50 in test [1], in test [2] and in test [3] were 0.01 to 0.0316 µM, 1 to 10 µM and under 1 µM, respectively.

On to `C[C@@H]1CN(c2ccc(-n3cnc(Nc4cnc(C#N)cn4)c3)cc2)C[C@@H]1N(C)C` [Example 76, 5-((1-(4-((3R,4R)-3-(Dimethylamino)-4-methylpyrrolidin-1-yl)phenyl)-1H-imidazol-4-yl)amino)pyrazine-2-carbonitrile], for which the IC50 in test [1] was 0.01 to 0.0316 µM; in test [2] it was 10 to 100 µM; in test [3], under 1 µM.

Consider `C[C@H]1C[C@@H](N(C)C)CN1c1ccc(-n2cnc(Nc3cnc(C#N)cn3)c2)cc1` [Example 75, 5-((1-(4-((2S,4R)-4-(Dimethylamino)-2-methylpyrrolidin-1-yl)phenyl)-1H-imidazol-4-yl)amino)pyrazine-2-carbonitrile], for which the IC50 in test [3] was under 1 µM.

As to `CN1CC2(CCN(c3ccc(-n4cnc(Nc5cnc(C#N)cn5)c4)cc3)C2)C1` [Example 69, 5-((1-(4-(2-Methyl-2,6-diazaspiro[3.4]octan-6-yl)phenyl)-1H-imidazol-4-yl)amino)pyrazine-2-carbonitrile], the figures for the IC50 in test [1], in test [2] and in test [3] were 0.01 to 0.0316 µM, 10 to 100 µM and 1 to 10 µM, respectively.

`CN(C)[C@@H]1CCN(c2cnc(-n3cnc(Nc4cnc(C#N)cn4)c3)cn2)C1` [Example 52, (R)-5-((1-(5-(3-(Dimethylamino)pyrrolidin-1-yl)pyrazin-2-yl)-1H-imidazol-4-yl)amino)pyrazine-2-carbonitrile]: the IC50 in test [1] is 0.0316 to 0.1 µM; in test [2] it was 10 to 100 µM; in test [3], 1 to 10 µM.

Take `N#Cc1cnc(Nc2cn(-c3ccc(OCCN)cc3)cn2)cn1` [Example 150, 5-((1-(4-(2-Aminoethoxy)phenyl)-1H-imidazol-4-yl)amino)pyrazine-2-carbonitrile]: in test [3], the IC50 was 1 to 10 µM.

Consider `CN(C)[C@@H]1CCN(c2ccc(-n3cnc(Nc4cnc(C#N)cn4)c3)cc2F)C1` [Example 79, (R)-5-((1-(4-(3-(Dimethylamino)pyrrolidin-1-yl)-3-fluorophenyl)-1H-imidazol-4-yl)amino)pyrazine-2-carbonitrile], for which the IC50 was under 0.01 µM in test [1], 1 to 10 µM in test [2] and under 1 µM in test [3].

As for `CN1C[C@H]2CN(c3ccc(-n4cnc(Nc5cnc(C#N)cn5)c4)cc3)[C@H]2C1` [Example 68, 5-((1-(4-((1S,5R)-3-Methyl-3,6-diazabicyclo[3.2.0]heptan-6-yl)phenyl)-1H-imidazol-4-yl)amino)pyrazine-2-carbonitrile], the values for the IC50 in test [1], in test [2] and in test [3] were 0.0316 to 0.1 µM, 10 to 100 µM and under 1 µM, respectively.

Take `CN(C)c1cc(N2CC[C@@H](N(C)C)C2)ccc1-n1cnc(Nc2cnc(C#N)cn2)c1` [Example 83, (R)-5-((1-(2-(Dimethylamino)-4-(3-(dimethylamino)pyrrolidin-1-yl)phenyl)-1H-imidazol-4-yl)amino)pyrazine-2-carbonitrile]: the values for the IC50 in test [1], in test [2] and in test [3] were 0.316 to 1 µM, 10 to 100 µM and 1 to 10 µM, respectively.

On to `N#Cc1cnc(Nc2cn(-c3ccc(N4C[C@H](N)[C@@H](F)C4)cc3)cn2)cn1` [Example 152, 5-((1-(4-((3S,4S)-3-Amino-4-fluoropyrrolidin-1-yl)phenyl)-1H-imidazol-4-yl)amino)pyrazine-2-carbonitrile], for which the IC50 in test [1] was 0.01 to 0.0316 µM; in test [2] it was 10 to 100 µM; in test [3] it was 1 to 10 µM.

Regarding `CCN(C)[C@@H]1CCN(c2ccc(-n3cnc(Nc4cnc(C#N)cn4)c3)cc2)C1` [Example 89, (R)-5-((1-(4-(3-(Ethyl(methyl)amino)pyrrolidin-1-yl)phenyl)-1H-imidazol-4-yl)amino)pyrazine-2-carbonitrile], the IC50 was under 0.01 µM in test [1], 1 to 10 µM in test [2] and under 1 µM in test [3].

As for `CN1[C@@H]2COC[C@H]1CN(c1ccc(-n3cnc(Nc4cnc(C#N)cn4)c3)cc1)C2` [Example 177, 5-((1-(4-((1R,5S)-9-Methyl-3-oxa-7,9-diazabicyclo[3.3.1]nonan-7-yl)phenyl)-1H-imidazol-4-yl)amino)pyrazine-2-carbonitrile], the IC50 was 0.1 to 0.316 µM in test [1] and 10 to 100 µM in test [2].

Regarding `CN1CCN(c2ccc(-n3cnc(Nc4cnc(C#N)cn4)c3)cc2F)CC1` [Example 21, 5-((1-(3-Fluoro-4-(4-methylpiperazin-1-yl)phenyl)-1H-imidazol-4-yl)amino)pyrazine-2-carbonitrile], the IC50 lay in the range of 0.0316 to 0.1 µM in test [1] and 10 to 100 µM in test [2].

Take `N#Cc1cnc(Nc2cn(-c3ccc(N4C[C@H]5CN[C@H]5C4)cc3)cn2)cn1` [Example 161, 5-((1-(4-((1R,5R)-3,6-Diazabicyclo[3.2.0]heptan-3-yl)phenyl)-1H-imidazol-4-yl)amino)pyrazine-2-carbonitrile]: the figures for the IC50 in test [1] and in test [2] were 0.01 to 0.0316 µM and 1 to 10 µM, respectively.

Regarding `N#Cc1cnc(Nc2cn(-c3ccc(CN4CCC(F)CC4)cc3)cn2)cn1` [Example 174, 5-((1-(4-((4-Fluoropiperidin-1-yl)methyl)phenyl)-1H-imidazol-4-yl)amino)pyrazine-2-carbonitrile], the results for the IC50 in test [1] and in test [2] were 0.0316 to 0.1 µM and 10 to 100 µM, respectively.

Consider `CN1CC[C@@H]2CN(c3ccc(-n4cnc(Nc5cnc(C#N)cn5)c4)cc3)C[C@@H]21` [Example 87, 5-((1-(4-((3aR,6aR)-1-Methylhexahydropyrrolo[3,4-b]pyrrol-5(1H)-yl)phenyl)-1H-imidazol-4-yl)amino)pyrazine-2-carbonitrile], for which the IC50 in test [1] lay within 0.01 to 0.0316 µM; in test [2], 10 to 100 µM.

In the case of `CN(C)C1CCCN(c2ccc(-n3cnc(Nc4cnc(C#N)cn4)c3)cc2)C1` (single isomer, unassigned) [Example 122, 5-((1-(4-(3-(Dimethylamino)piperidin-1-yl)phenyl)-1H-imidazol-4-yl)amino)pyrazine-2-carbonitrile], the IC50 fell in the range of 0.01 to 0.0316 µM in test [1] and 10 to 100 µM in test [2].

For `CCN(CC)C1(c2ccc(-n3cnc(Nc4cnc(C#N)cn4)c3)cc2)CC1` [Example 179, 5-((1-(4-(1-(Diethylamino)cyclopropyl)phenyl)-1H-imidazol-4-yl)amino)pyrazine-2-carbonitrile], the IC50 in test [1] is 0.1 to 0.316 µM; in test [2] it was over 100 µM.

For the origin of these results see US20260132140A1, “IMIDAZOLYL-AMINO-PYRAZINE-CARBONITRILS AS CHK-1 INHIBITORS” (BenevolentAI Bio Limited, priority 2022, published 2026).
